Test results published in patent publication US20240208961A1, “EIF4E INHIBITORS AND USES THEREOF” (PIC Therapeutics, Inc., priority 2022, published 2024).

Experiments:
ZR-75-1 [1] = experiment: ZR-75-1 compound screening cell viability, Alamar Blue (Example 6); assay type: cell-based; settings: ZR-75-1 cells, Media 1% FBS, read-out: ZR-75-1 Cell Viability, 4 Days: IC50
ZR-75-1 [2] = experiment: Cell viability assay, adherent cell line, 5 day Alamar Blue (Example 8): ZR-75-1; assay type: cell-based; settings: ZR-75-1, Breast Cancer Cell Viability
Description: Cell viability assays were performed on certain compounds of the disclosure, according to the following procedure.
Cell line specific media conditions used:
The procedure for adherent cell line compound screening was as follows:
• Cells were seeded in 96-well cell culture treated tissue culture plates: ZR-75-1, NIHOVCAR3, T47D, and LOVO cells 4000 cells/well; and HPAFII 3000 cell/well
Day 3: Compound Dilution and Dosing
• 5-fold serial dilution (8 point) of each compound in DMSO 0-25 mM in compound storage plates was prepared (stored at −80° C. if not to be used immediately). • Cells were rinsed with 1% FBS Media (appropriate to cell line as described above) and replaced with 87.5 μL media prior to dosing. HPAFII was screened in normal 10% FBS Media. • DMSO compound dilution series was diluted in 1% FBS media (appropriate to cell line as described above)—2 μL in 248 μL to give an 8× final concentration. • Cells were dosed 12.5 μL/well in triplicate to give final dose curved on cells 0-25 μM. • Media blank 100 μL/well×8 was set up. • All plates were incubated at 37° C.
Day 8: 5 Day Viability Assay
• Alamar Blue viability reagent was added (10 μL per well) and incubated for 3 hours at 37° C. prior to fluorescence detection (Ex560 nm/Em590 nm) on a Varioskan Lux multimode plate reader.
Results from cell viability assays are summarized in Table 23, wherein A represents IC50≤1 μM; B represents 1 μM<IC50≤8 μM; and C represents IC50>8 μM. Blank cells indicate that the compound was not tested in a particular assay.

| Compound | IC50 (ZR-75-1 [1]) [µM] | IC50 (ZR-75-1 [2]) [µM] | IC50 (ZR-75-1 [1]; Homo sapiens, 96 h) [µM] | IC50 (ZR-75-1 [2]; Homo sapiens, 120 h) [µM] |
| --- | --- | --- | --- | --- |
| 2-((4-(cyclopent-1-en-1-yl)-5-isobutylthiazol-2-yl)amino)-5-(thiophen-2-yl)nicotinic acid [Compound I-7] | < 1 | > 8 | – | – |
| COC(=O)c1cc(-c2cccs2)cnc1Nc1nc(C2=CCC(F)(F)CC2)c(CC(C)C)s1 [Compound I-5, methyl 2-((4-(4,4-difluorocyclohex-1-en-1-yl)-5-isobutylthiazol-2-yl)amino)-5-(thiophen-2-yl)nicotinate] | – | – | > 8 | > 8 |
| CC(C)Cc1sc(Nc2ncc(-c3cccs3)cc2C(=O)O)nc1C1CCCC1 [Compound I-6, 2-((4-cyclopentyl-5-isobutylthiazol-2-yl)amino)-5-(thiophen-2-yl)nicotinic acid] | – | – | < 1 | ≤ 1 |
| CC(C)c1sc(Nc2ncc(-c3cccs3)cc2C(=O)O)nc1C1=CCCC1 [Compound I-9] | – | – | < 1 | ≤ 1 |
| CC(C)Cc1sc(Nc2ncc(-c3cccs3)cc2C(=O)O)nc1C1CC1 [Compound I-10] | – | – | 1 to 8 | 1 to 8 |
| O=C(O)c1cc(-c2cccs2)cnc1Nc1nc(C(F)(F)F)cs1 [Compound I-12] | – | – | 1 to 8 | 1 to 8 |
| Cc1nc(Nc2ncc(-c3cccs3)cc2C(=O)O)sc1C [Compound I-14] | – | – | 1 to 8 | 1 to 8 |
| O=C(O)c1cc(-c2cccs2)cnc1Nc1nccs1 [Compound I-15] | – | – | > 8 | > 8 |
| CC(C)c1cnc(Nc2ncc(-c3cccs3)cc2C(=O)O)s1 [Compound I-16] | – | – | > 8 | > 8 |
| Cc1nc(Nc2ncc(-c3cccs3)cc2C(=O)O)sc1CC(C)C [Compound I-17] | – | – | > 8 | > 8 |
| CC(C)Cc1cnc(Nc2ncc(-c3cccs3)cc2C(=O)O)s1 [Compound I-18] | – | – | 1 to 8 | 1 to 8 |
| CC(C)Cc1sc(Nc2ncc(-c3cccs3)cc2C(=O)O)nc1C(F)(F)F [Compound I-22] | – | – | 1 to 8 | 1 to 8 |
| CC(C)c1sc(Nc2ncc(-c3cccs3)cc2C(=O)O)nc1C(C)(C)C [Compound I-25] | – | – | – | 1 to 8 |
| CC(C)Cc1sc(Nc2ncc(-c3cccs3)cc2C(=O)O)nc1C(C)C [Compound I-26] | – | – | – | ≤ 1 |
| CC(C)c1sc(Nc2ncc(-c3cccs3)cc2C(=O)O)nc1C1CCC(F)(F)CC1 [Compound I-31] | – | – | – | 1 to 8 |
